Here are results for 20 compounds from article PMC5321434, “Dihydrobenz[e][1,4]oxazepin-2(3H)-ones, a new anthelmintic chemotype immobilising whipworm and reducing infectivity in vivo” (PLoS Neglected Tropical Diseases, 2017).

In the experiment the test system is adult T. muris. The experiment is described as follows: Ex vivo adult T. muris automated motility assay (primary/secondary screen at 100 μM and dose-response). Also on record: species or system Trichuris muris. To be noted: 100 μM; for COMBINED_SCREEN_ACTIVITY: combined primary and secondary screen minus log fold change in movement, adult T. muris; for PRIMARY_SCREEN_MINUS_LOG_FOLD_CHANGE_MOVEMENT: primary screen; for PRIMARY_SCREEN_MINUS_LOG_FOLD_CHANGE_MOVEMENT / SECONDARY_SCREEN_MINUS_LOG_FOLD_CHANGE_MOVEMENT: adult T. muris motility; for SECONDARY_SCREEN_MINUS_LOG_FOLD_CHANGE_MOVEMENT: secondary screen. On the procedure:
Severe combined immune deficiency (SCID) mice were bred in the Biological Services Facility at the University of Manchester. Both male and female SCID mice were infected with a high dose of 200 infective embryonated T. muris eggs via oral gavage. At day 35 post-infection, groups of 5 mice were killed and their […] colons removed. Guts were opened longitudinally, washed with pre-warmed Roswell Park Memorial Institute (RPMI) 1640 media supplemented with penicillin (500U/ml) and streptomycin (500μg/ml) and adult T. muris worms gently removed using fine forceps. Worms removed from SCID mice were maintained in RPMI-1640 media supplemented with penicillin (500U/ml) and streptomycin (500μg/ml) at approximately 37°C and studied on the same day. Using fine forceps, individual live worms were placed into 96 well plates containing 75μl of RPMI-1640 medium supplemented with penicillin (500U/ml) and streptomycin (500μg/ml) plus 1% final concentration of DMSO or compound dissolved in DMSO. In the primary screen the test compound concentration was 100μM. Plates were then incubated at 37°C, 5% CO2, and motility was analysed after 24 hours. Worm movement was quantified using an automated motility assay. This system gives an estimate of worm movement in each well by thresholding and quantifying pixel intensity variance over time. An earlier version of this system has been previously described. One adult T. muris worm was used per well, with one well per compound in each replicate of the primary screen. The primary screen was repeated each week for a period of four weeks giving four independent biological replicates from separate parasite batches for each compound. Dose-response curves were calculated with the four factor log-logistic model using the R package drc. The primary screen was carried out at 100μM final concentration. Assay plates were assigned unique IDs and statistical analysis was performed without knowledge of compound identities using R scripts. Once hit wells were identified, well/plate positions were mapped to compound identities using DataWarrior [28]. […] Compounds identified as having encouraging activity from the DMSO solution samples were then resynthesized for confirmatory testing.

Take `COCCN1C(=O)COCc2ccc(-c3ccc(OC)cc3)cc21` [Compound 46]: the COMBINED_SCREEN_ACTIVITY is recorded as -1.143 and the PRIMARY_SCREEN_MINUS_LOG_FOLD_CHANGE_MOVEMENT is -1.143.
As to `O=C1COCc2ccc(-c3ccc(Cl)cc3)cc2N1CC1CC1` [Compound 47], the COMBINED_SCREEN_ACTIVITY is given as 1.5592 and the PRIMARY_SCREEN_MINUS_LOG_FOLD_CHANGE_MOVEMENT turned out to be 1.5592.
In the case of `O=C1COCc2ccc(-c3cc(F)cc(F)c3)cc2N1CC1CC1` [Compound 48], the COMBINED_SCREEN_ACTIVITY stood at 1.875 and the PRIMARY_SCREEN_MINUS_LOG_FOLD_CHANGE_MOVEMENT came out at 1.875.
As to `O=C1COCc2ccc(-c3ccncc3)cc2N1Cc1ccccc1` [Compound 49], the COMBINED_SCREEN_ACTIVITY was -0.743 and the PRIMARY_SCREEN_MINUS_LOG_FOLD_CHANGE_MOVEMENT is -0.743.
On to `O=C1COCc2ccc(-c3cccnc3)cc2N1Cc1ccccc1` [Compound 50], for which the COMBINED_SCREEN_ACTIVITY is listed as 0.07509 and the PRIMARY_SCREEN_MINUS_LOG_FOLD_CHANGE_MOVEMENT was 0.07509.
Consider `O=C1COCc2cc(-c3cccnc3)ccc2N1Cc1ccccc1` [Compound 51], for which the COMBINED_SCREEN_ACTIVITY was -0.6528 and the PRIMARY_SCREEN_MINUS_LOG_FOLD_CHANGE_MOVEMENT is given as -0.6528.
Consider `O=C1COCc2cc(-c3ccncc3)ccc2N1Cc1ccccc1` [Compound 52], for which the COMBINED_SCREEN_ACTIVITY was determined as 0.9757 and the PRIMARY_SCREEN_MINUS_LOG_FOLD_CHANGE_MOVEMENT was 0.9757.
`COCCN1C(=O)COCc2ccc(-c3ccc(Cl)cc3)cc21` [Compound 53]: the COMBINED_SCREEN_ACTIVITY is recorded as -0.5764 and the PRIMARY_SCREEN_MINUS_LOG_FOLD_CHANGE_MOVEMENT is -0.5764.
Consider `O=C1COCc2cc(Br)ccc2N1Cc1ccccc1` [Compound 54], for which the COMBINED_SCREEN_ACTIVITY is 0.1915 and the PRIMARY_SCREEN_MINUS_LOG_FOLD_CHANGE_MOVEMENT turned out to be 0.1915.
With `O=C1COCc2c(Br)cccc2N1Cc1ccccc1` [Compound 55], the COMBINED_SCREEN_ACTIVITY is given as 1.386 and the PRIMARY_SCREEN_MINUS_LOG_FOLD_CHANGE_MOVEMENT came out at 1.386.
For `COCCN1C(=O)COCc2ccc(-c3cc(F)cc(F)c3)cc21` [Compound 56], the COMBINED_SCREEN_ACTIVITY was -1.686 and the PRIMARY_SCREEN_MINUS_LOG_FOLD_CHANGE_MOVEMENT is recorded as -1.686.
On to `Cn1cc(-c2ccc3c(c2)COCC(=O)N3Cc2ccccc2)cn1` [Compound 58], for which the COMBINED_SCREEN_ACTIVITY was 0.8104 and the PRIMARY_SCREEN_MINUS_LOG_FOLD_CHANGE_MOVEMENT worked out at 0.8104.
For the compound `Cn1cc(-c2ccc3c(c2)N(Cc2ccccc2)C(=O)COC3)cn1` [Compound 59], the COMBINED_SCREEN_ACTIVITY is listed as -0.5338 and the PRIMARY_SCREEN_MINUS_LOG_FOLD_CHANGE_MOVEMENT is on record as -0.5338.
As for `O=C1COCc2ccc(-c3ccncc3)cc2N1CC1CCCCC1` [Compound 60], the COMBINED_SCREEN_ACTIVITY was 7.742 and the PRIMARY_SCREEN_MINUS_LOG_FOLD_CHANGE_MOVEMENT is recorded as 7.742.
With `O=C1COCc2ccc(-c3cccnc3)cc2N1CC1CCCCC1` [Compound 61], the COMBINED_SCREEN_ACTIVITY is reported as 11.7341, the PRIMARY_SCREEN_MINUS_LOG_FOLD_CHANGE_MOVEMENT turned out to be 10.8493 and the SECONDARY_SCREEN_MINUS_LOG_FOLD_CHANGE_MOVEMENT is 12.6188.
With `O=C(O)c1cccc(-c2ccc3c(c2)N(CC2CC2)C(=O)COC3)c1` [Compound 62], the COMBINED_SCREEN_ACTIVITY is reported as -1.551 and the PRIMARY_SCREEN_MINUS_LOG_FOLD_CHANGE_MOVEMENT is -1.551.
For `COCc1cccc(-c2ccc3c(c2)N(CC2CC2)C(=O)COC3)c1` [Compound 63], the COMBINED_SCREEN_ACTIVITY is -1.629 and the PRIMARY_SCREEN_MINUS_LOG_FOLD_CHANGE_MOVEMENT is reported as -1.629.
For `O=C1COCc2cc(Br)ccc2N1CC1CCCCC1` [Compound 64], the COMBINED_SCREEN_ACTIVITY amounted to 3.118, the PRIMARY_SCREEN_MINUS_LOG_FOLD_CHANGE_MOVEMENT was 3.494 and the SECONDARY_SCREEN_MINUS_LOG_FOLD_CHANGE_MOVEMENT is 2.742.
Take `O=C1COCc2ccc(Br)cc2N1CC1CCCCC1` [Compound 65]: the COMBINED_SCREEN_ACTIVITY is given as -1.362 and the PRIMARY_SCREEN_MINUS_LOG_FOLD_CHANGE_MOVEMENT was -1.362.
With `COCCN1C(=O)COCc2ccc(-c3cccc(C(C)C)c3)cc21` [Compound 66], the COMBINED_SCREEN_ACTIVITY is 7.026 and the PRIMARY_SCREEN_MINUS_LOG_FOLD_CHANGE_MOVEMENT is 7.026.
